Measurements: patent US20230406850A1, “CRYSTALLINE FORM OF HETEROCYCLIC COMPOUND, PREPARATION METHOD THEREFOR AND APPLICATION THEREOF” (WUHAN LL SCIENCE AND TECHNOLOGY DEVELOPMENT CO., LTD., priority 2020, published 2023)
Converted amounts (≈) assume the structure as drawn. Where two headings read alike, the source gives them in different places.

Legend:
[1] = Solid form change on dehydration, drying or ambient humidity (XRPD); format: physicochemical; details: heating to dehydration, then ambient humidity
Description: Combined with DSC and TGA pattern, it can be seen that the product is hydrate with about 0.34 water molecules.

[2] = Stability of crystalline form III slurried in DMSO/water mixed solvents; format: physicochemical; details: for The experimental results (crystalline form): slurried three days at room temperature
[3] = Solubility in DMSO and DMSO/water mixed solvents; format: physicochemical
[4] = Physical and chemical stability (stability boxes, XRPD and HPLC); format: physicochemical; details: for Purity -7 days (peak area %) / XRPD: 7 days
Experimental: About 10 mg of crystalline forms I, III and V were placed in the stability boxes at 40° C./75% RH (open) and 60° C. (covered) for seven days, and some samples were taken out for XRPD and HPLC tests at 0 and 7 days, respectively, to investigate their physical and chemical stability.

[5] = Mechanical stability test (grinding and pelleting); format: physicochemical
Experimental: The mechanical stability of crystalline forms I and III were investigated by grinding and pelleting. Grinding test method: the sample to be measured was put in a mortar and grinded for 2 minutes and 5 minutes respectively, then XRPD was test, and the changes of crystalline form and crystallinity were observed. Pelleting test method: the sample was placed in the die of tablet press, kept at 40 MPa for one minute, and then the crystalline form taken out to test XRPD.

[6] = Pharmacokinetics of crystalline form III, fasting and non-fasting; format: in vivo, Beagle dog; details: for AUC(0-inf) / Cmax / MRT last / Tmax / half-life / AUC(0-t): beagle, dog, po, 100 mg/kg, 100 mg/kg po
Experimental: Beagle dog (general grade, Beijing Masi Biotechnology Co., Ltd.) was given compound A by single oral gavage to study the pharmacokinetics of the compound in plasma. The test drug (100 mg/kg dosage, 5 mL/kg administration volume) was given by gavage, and samples were collected at 10 minutes, 30 minutes, 1 hour, 2 hours, 4 hours, 6 hours, 8 hours, 10 hours, 24 hours and 48 hours after administration: peripheral venipuncture was performed, and about 1.0 mL whole blood was collected from each animal at every time point, and blood samples were collected. Within 60 minutes after blood collection, 0.2 mL of whole blood was separated into a cryopreservation tube, and deionized water was added at a ratio of 1:1, which was mixed upside down and then frozen. The remaining samples were centrifuged at 2,000 g at 2 to 8° C. for 10 min to obtain plasma samples, and the hemolysis of each sample was recorded, and the influence on detection was evaluated, and then the color of plasma was observed and recorded on the blood collection table (“−” means no hemolysis, “+” means pink supernatant and “++” means red supernatant).
The concentration of compound A in plasma was determined by LC-MS/MS method (Non-GLP). The pharmacokinetic parameters were calculated by WinNonlin (Phoenix™, version 8.1) or other similar software. If applicable plasma drug concentration-time data are available, the following pharmacokinetic parameters are calculated: CL (clearance), Vss (steady-state apparent volume of distribution), T1/2 (elimination half-life), Cmax (peak concentration), Tmax (peak time), AUC (area under the concentration-time curve), MRT (mean residence time). Pharmacokinetic data were described by descriptive statistics, such as mean, standard deviation and sample size.

[7] = female, whole blood, Non-fast, blood
[8] = female, whole blood, fast, blood
[9] = male, whole blood, Non-fast, blood

## COC(=O)N1CCO[C@@H](Cc2c(-c3c(F)cc(S(N)(=O)=O)cc3F)nc3cc(Cl)ccn23)C1 [Crystalline form III, methyl (S)-2-((7-chloro-2-(2,6-difluoro-4-sulfamoylphenyl)imidazo[1,2-a]pyridin-3-yl)methyl)morpholine-4-carboxylate]
[1]
  crystalline form after dehydration: becomes crystalline form III again
[2]; DMSO/Water 1/2 V/V
  The experimental results (crystalline form): Crystalline form III
[2]; DMSO/Water 1/4 V/V
  The experimental results (crystalline form): Crystalline form III
[2]; DMSO/Water 2/3 V/V
  The experimental results (crystalline form): Crystalline form III
[2]; room temperature
  water content of DMSO/water in which the form is stable without crystal transformation: higher than 60 % (volume percentage)
[3]; aqueous with cosolvent or surfactant or cyclodextrin, DMSO/Water 1:2, RT
  Solubility: ~500 µg/mL (≈ 998 µM)
[3]; aqueous with cosolvent or surfactant or cyclodextrin, DMSO/Water 1:3, RT
  Solubility: ~280 µg/mL (≈ 559 µM)
[3]; aqueous with cosolvent or surfactant or cyclodextrin, DMSO/Water 1:4, RT
  Solubility: < 250 µg/mL
[3]; organic solvent or mixture, DMSO, RT
  Solubility: > 200000 µg/mL
[4]; 0 days
  Initial purity (Peak area %): 99.34 peak area %
[4]; 40° C./75% RH (open)
  Purity -7 days (peak area %): 99.35 peak area %
  XRPD: Constant
[4]; 40° C./75% RH and 60° C., seven days
  stability conclusion in words: good physical and chemical stability
[4]; 60° C. (covered)
  Purity -7 days (peak area %): 99.35 peak area %
  XRPD: Constant
[5]; 40 MPa, 1 min
  crystallinity after pelleting: decreases obviously
[5]; grinding 2 min and 5 min
  crystalline form and crystallinity after grinding: no obvious change in crystalline form and crystallinity
[6]; fasting condition, female
  blood: plasma: 521%
[6]; fasting condition, male (first value)
  blood: plasma: 1452%
[6]; fasting condition, plasma
  plasma drug concentration, male relative to female: about 6 times
[6]; fasting condition, whole blood
  whole blood drug concentration, male relative to female: 1.9 times
[6]; female, plasma, Non-fast
  AUC(0-inf): 466 µg·h/mL
  Cmax: 24000 ng/mL
  MRT last: 12.6 h
  Tmax: 7.33 h
  half-life: 308 min
[6]; female, plasma, Non-fast, plasma, female, read-out: AUC0-24 h
  AUC(0-t): 378 µg·h/mL
[6]; female, plasma, Non-fast, plasma, female, read-out: AUClast
  AUC(0-t): 465 µg·h/mL
[6]; female, plasma, fast
  AUC(0-inf): 9.21 µg·h/mL
  Cmax: 1680 ng/mL
  MRT last: 8.06 h
  Tmax: 1.33 h
  half-life: 720 min
[6]; female, plasma, fast, plasma, female, read-out: AUC0-24 h
  AUC(0-t): 7.54 µg·h/mL
[6]; female, plasma, fast, plasma, female, read-out: AUClast
  AUC(0-t): 8.16 µg·h/mL
[6]; [7]
  AUC(0-inf): 955 µg·h/mL
  Cmax: 23500 ng/mL
  MRT last: 18.7 h
  Tmax: 6 h
  half-life: 1510 min
[6]; female, whole blood, Non-fast, blood, female, read-out: AUC0-24 h
  AUC(0-t): 432 µg·h/mL
[6]; female, whole blood, Non-fast, blood, female, read-out: AUClast
  AUC(0-t): 675 µg·h/mL
[6]; [8]
  AUC(0-inf): 242 µg·h/mL
  Cmax: 10300 ng/mL
  MRT last: 14.1 h
  Tmax: 1.83 h
  half-life: 1340 min
[6]; female, whole blood, fast, blood, female, read-out: AUC0-24 h
  AUC(0-t): 134 µg·h/mL
[6]; female, whole blood, fast, blood, female, read-out: AUClast
  AUC(0-t): 187 µg·h/mL
[6]; male, plasma, Non-fast
  AUC(0-inf): 367 µg·h/mL
  Cmax: 18900 ng/mL
  MRT last: 11.8 h
  Tmax: 4.67 h
  half-life: 320 min
[6]; male, plasma, Non-fast, plasma, male, read-out: AUC0-24 h
  AUC(0-t): 305 µg·h/mL
[6]; male, plasma, Non-fast, plasma, male, read-out: AUClast
  AUC(0-t): 366 µg·h/mL
[6]; male, plasma, fast
  AUC(0-inf): 40.2 µg·h/mL
  Cmax: 5700 ng/mL
  MRT last: 13.6 h
  Tmax: 9 h
[6]; male, plasma, fast, plasma, male, read-out: AUC0-24 h
  AUC(0-t): 48.8 µg·h/mL
[6]; male, plasma, fast, plasma, male, read-out: AUClast
  AUC(0-t): 81.4 µg·h/mL
[6]; [9]
  AUC(0-inf): 818 µg·h/mL
  Cmax: 19000 ng/mL
  MRT last: 18.9 h
  Tmax: 4.67 h
  half-life: 1710 min
[6]; male, whole blood, Non-fast, blood, male, read-out: AUC0-24 h
  AUC(0-t): 353 µg·h/mL
[6]; male, whole blood, Non-fast, blood, male, read-out: AUClast
  AUC(0-t): 557 µg·h/mL
[6]; male, whole blood, fast, blood
  AUC(0-inf): 521 µg·h/mL
  Cmax: 14600 ng/mL
  MRT last: 19.5 h
  Tmax: 9.33 h
  half-life: 893 min
[6]; male, whole blood, fast, blood, male, read-out: AUC0-24 h
  AUC(0-t): 255 µg·h/mL
[6]; male, whole blood, fast, blood, male, read-out: AUClast
  AUC(0-t): 449 µg·h/mL
[6]; non-fasting condition, female
  blood: plasma: 116%
[6]; non-fasting condition, male (first value)
  blood: plasma: 114%
